Laboratory results from patent publication US6004992A, “Aminocarboxylic acid fluorobutenyl esters” (Bayer Aktiengesellschaft, priority 1995, dated 1999).

Legend:
[1] = tested on: Meloidogyne incognita; assay: Critical Concentration Test/nematodes; format: in vivo; details: 20 ppm (=mg/l soil), four weeks, 25° C., 100% = infestation avoided completely
Protocol: Critical Concentration Test/nematodes
Test nematode: Meloidogyne incognita
Solvent: 4 parts by weight of acetone
Emulsifier: 1 part by weight of alkylaryl polyglycol ether
To produce a suitable preparation of active compound, 1 part by weight of active compound is mixed with the stated amount of solvent, the stated amount of emulsifier is added and the concentrate is diluted with water to the desired concentration.
The active compound preparation is intimately mixed with soil which is heavily infested with the test nematodes. The active compound concentration in the preparation is immaterial, only the amount of active compound per unit volume of soil, which is given in ppm (=mg/l), matters. The treated soil is transferred into pots, lettuce is sown in, and the pots are kept at a greenhouse temperature of 25° C.
After four weeks, the lettuce roots are checked for infestation with nematodes (root galls) and the efficacy of the active compound in % is determined. The efficacy is 100% when infestation is avoided completely and 0% when the infestation level is just as high as in the control plants in untreated, but equally infested, soil.

[2] = tested on: Boophilus Microplus Resistent/SP-resistent Parkhurst Strain; assay: Test with Boophilus Microplus Resistent/SP-resistent Parkhurst Strain (inhibition of oviposition); format: in vivo; details: 20 μg/animal; 1 μl injected into the abdomen, adult females; 100% = no tick has deposited eggs
Protocol: Test with Boophilus Microplus Resistent/SP-resistent Parkhurst Strain
Test animals: Adult females which have sucked themselves full
Solvent: Dimethyl sulphoxide
20 mg of active compound are dissolved in 1 ml of dimethyl sulphoxide, and lower concentrations are prepared by diluting in the same solvent.
The test is carried out in 5 replications. 1 μl of the solutions is injected into the abdomen, and the animals are transferred into dishes and kept in an air-conditioned room. The activity is determined via the inhibition of oviposition. 100% means that no tick has deposited eggs.

[3] = log p (pH 2); format: physicochemical

Row | SMILES | logD [3] | other results
1 | CC(=O)NC(=Cc1ccccc1)C(=O)OCCC(F)=C(F)F [Example Ia-2] | – | efficacy of the active compound in % (nematode infestation of lettuce roots, root galls) [1]: 100%
2 | CC(=O)NC(=Cc1cccs1)C(=O)OCCC(F)=C(F)F [Example Ia-4] | – | activity (inhibition of oviposition) [2]: 100%
3 | O=CNC1(C(=O)OCCC(F)=C(F)F)CC1 [Ib-14] | 1.32 | –
4 | O=C(OCCC(F)=C(F)F)C1CCCN1C(=O)OCc1ccccc1 (stereo not drawn) [Ic-1] | 3.31 | –

Now from value to compound, other results behind:

Row | logD [3] | SMILES | other results
5 | 2.42 | C[C@H](NC(=O)c1c(F)cccc1F)C(=O)OCCC(F)=C(F)F [Example Ib-2, 3,4,4-trifluorobut-3-enyl N-(2,6-difluorobenzoyl)-alaninate] | –
6 | 2.09 | O=C(CNC(=O)c1ccccc1)OCCC(F)=C(F)F [Ib-6] | –
